In US9765092B2, “Tricyclic piperidine compounds” (ACTELION PHARMACEUTICALS LTD, priority 2013, dated 2017) one finds IC50 data, which are given here for 25 compounds.

A word on the IC50: it is the concentration that inhibits the measured activity by half. The low end stands for greater potency in that assay, the high end for weaker potency in that assay.

This experiment has as its target human TPH1 (Homo sapiens (Human), UniProt P17752). Kind of experiment: Biochemical in vitro assay using fluorescence readout (TPH1 inhibition).
[1] abbreviates: human TPH1, fluorescence readout.

Chain of human TPH1 (P17752 whole entry): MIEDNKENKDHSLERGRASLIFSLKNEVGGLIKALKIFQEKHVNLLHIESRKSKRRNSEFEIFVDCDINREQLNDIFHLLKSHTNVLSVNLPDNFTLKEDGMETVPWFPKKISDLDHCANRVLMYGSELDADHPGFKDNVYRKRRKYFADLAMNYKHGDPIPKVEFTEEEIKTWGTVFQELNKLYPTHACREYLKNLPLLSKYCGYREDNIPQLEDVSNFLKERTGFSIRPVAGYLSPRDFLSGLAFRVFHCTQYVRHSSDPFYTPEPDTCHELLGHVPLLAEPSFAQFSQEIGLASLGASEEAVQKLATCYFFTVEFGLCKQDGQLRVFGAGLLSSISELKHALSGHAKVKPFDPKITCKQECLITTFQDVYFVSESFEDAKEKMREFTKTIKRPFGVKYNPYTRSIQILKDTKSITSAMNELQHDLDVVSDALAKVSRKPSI

`Cc1nn2c3c(nc2s1)CCN(C(=O)COc1ccc(N2CCOCC2)nc1Cl)C3c1ncc(C2CC2)cc1F` (stereo not shown) [Example 1.14.1, 2-((2-chloro-6-morpholinopyridin-3-yl)oxy)-1-(5-(5-cyclopropyl-3-fluoropyridin-2-yl)-2-methyl-7,8-dihydro-[1,3,4]thiadiazolo[2′,3′:2,3]imidazo[4,5-c]pyridin-6(5H)-yl)ethanone] returned an IC50 under setting [1] of 4 nM.

As for `Cc1ncc(C2c3c(nc4sc(C)nn34)CCN2C(=O)COc2ccc(C(=O)N(C)C)nc2Cl)s1` (stereo not shown) [Example 1.59.1, 6-chloro-N,N-dimethyl-5-(2-(2-methyl-5-(2-methylthiazol-5-yl)-7,8-dihydro-[1,3,4]thiadiazolo[2′,3′:2,3]imidazo[4,5-c]pyridin-6(5H)-yl)-2-oxoethoxy)picolinamide], under setting [1], inhibition was half-maximal at 37 nM (IC50).

`Cc1nn2c3c(nc2s1)CCN(C(=O)COc1ccc(C(=O)N(C)C2CC2)nc1Cl)C3c1ccc(Cl)cc1F` (stereo not shown) [Example 1.4.46, 6-chloro-5-(2-(5-(4-chloro-2-fluorophenyl)-2-methyl-7,8-dihydro-[1,3,4]thiadiazolo[2′,3′:2,3]imidazo[4,5-c]pyridin-6(5H)-yl)-2-oxoethoxy)-N-cyclopropyl-N-methylpicolinamide] returned an IC50 under setting [1] of 16 nM.

In turn, `CCc1ncccc1OCC(=O)N1CCc2nc3sc(C)nn3c2C1c1coc(-c2ccccc2)n1` (stereo not shown) [Example 1.12.2, 2-((2-ethylpyridin-3-yl)oxy)-1-(2-methyl-5-(2-phenyloxazol-4-yl)-7,8-dihydro-[1,3,4]thiadiazolo[2′,3′:2,3]imidazo[4,5-c]pyridin-6(5H)-yl)ethanone] yielded an IC50 under setting [1] of 336 nM.

Under setting [1], `Cc1nn2c3c(nc2s1)CCN(C(=O)COc1ccc(C#N)nc1Cl)C3c1ncc(C2CC2)cc1F` (stereo not shown) [Example 1.14.4, 6-chloro-5-(2-(5-(5-cyclopropyl-3-fluoropyridin-2-yl)-2-methyl-7,8-dihydro-[1,3,4]thiadiazolo[2′,3′:2,3]imidazo[4,5-c]pyridin-6(5H)-yl)-2-oxoethoxy)picolinonitrile] returned an IC50 of 17 nM.

Regarding `O=C(COc1ccc(-c2ncco2)nc1Cl)N1CCc2nc3scnn3c2C1c1ccc(Cl)cc1F` (stereo not shown) [Example 2.1.3], under setting [1], the IC50 worked out at 8 nM.

Under setting [1], `Cc1nn2c3c(nc2s1)CCN(C(=O)COc1ccc(C(=O)N(C)C)nc1Cl)C3c1sc(C(=O)N(C)C)cc1F` (stereo not shown) [Example 1.24.7, 6-chloro-5-(2-(5-(5-(dimethylcarbamoyl)-3-fluorothiophen-2-yl)-2-methyl-7,8-dihydro-[1,3,4]thiadiazolo[2′,3′:2,3]imidazo[4,5-c]pyridin-6(5H)-yl)-2-oxoethoxy)-N,N-dimethylpicolinamide] came in with an IC50 of 5 nM.

In the case of `CCOC(=O)c1ncc(C2c3c(nc4sc(C)nn34)CCN2C(=O)COc2ccc(N3CCOCC3)nc2Cl)s1` (stereo not shown) [Example 1.30.1, Ethyl 5-(6-(2-((2-chloro-6-morpholinopyridin-3-yl)oxy)acetyl)-2-methyl-5,6,7,8-tetrahydro-[1,3,4]thiadiazolo [2′,3′:2,3]imidazo[4,5-c]pyridin-5-yl)thiazole-2-carboxylate], it took 9 nM to reach half-maximal inhibition under setting [1] (IC50).

Under setting [1], `Cc1nn2c3c(nc2s1)CCN(C(=O)COc1ccc(I)nc1Cl)C3c1ccc(Cl)cc1F` (stereo not shown) [Example 1.4.10, 1-(5-(4-chloro-2-fluorophenyl)-2-methyl-7,8-dihydro-[1,3,4]thiadiazolo[2′,3′:2,3]imidazo[4,5-c]pyridin-6(5H)-yl)-2-((2-chloro-6-iodopyridin-3-yl)oxy)ethanone] showed an IC50 of 8 nM.

In the case of `COC1(C)CN(c2ccc(OCC(=O)N3CCc4nc5sc(C)nn5c4C3c3ccc(Cl)cc3F)c(Cl)n2)C1` (stereo not shown) [Example 1.4.43, 1-(5-(4-chloro-2-fluorophenyl)-2-methyl-7,8-dihydro-[1,3,4]thiadiazolo[2′,3′:2,3]imidazo[4,5-c]pyridin-6(5H)-yl)-2-((2-chloro-6-(3-methoxy-3-methylazetidin-1-yl)pyridin-3-yl)oxy)ethanone], under setting [1], the IC50 turned out to be 35 nM.

Under setting [1], `CNC(=O)c1cc(F)c(C2c3c(nc4sc(C)nn34)CCN2C(=O)COc2ccc(NS(C)(=O)=O)nc2Cl)s1` (stereo not shown) [Example 1.25.7, 5-(6-(2-((2-chloro-6-(methylsulfonamido)pyridin-3-yl)oxy)acetyl)-2-methyl-5,6,7,8-tetrahydro-[1,3,4]thiadiazolo [2′,3′:2,3]imidazo[4,5-c]pyridin-5-yl)-4-fluoro-N-methylthiophene-2-carboxamide] registered an IC50 of 7 nM.

Compound `O=C(COc1ccc(CN2CCOCC2)nc1Cl)N1CCc2nc3sccn3c2C1c1ccc(Cl)cc1F` (stereo not shown) [Example 6.4.5, 1-(5-(4-chloro-2-fluorophenyl)-7,8-dihydrothiazolo-[2′,3′:2,3]imidazo[4,5-c]pyridin-6(5H)-yl)-2-((2-chloro-6-(morpholinomethyl)pyridin-3-yl)oxy)ethanone] had an IC50 under setting [1] of 7 nM.

As for `Cc1cc(Cl)ccc1OCC(=O)N1CCc2nc3sccn3c2C1c1c(C)nn(C)c1C` (stereo not shown) [Example 6.15.3, 2-(4-chloro-2-methylphenoxy)-1-(5-(1,3,5-trimethyl-1H-pyrazol-4-yl)-7,8-dihydrothiazolo[2′,3′:2,3]imidazo[4,5-c]pyridin-6(5H)-yl)ethanone], under setting [1], the IC50 was 20 nM.

In turn, `Cc1nn2c3c(nc2s1)CCN(C(=O)COc1ccc(N2CCOCC2)cc1Cl)C3c1cnc(C2CC2)nc1` (stereo not shown) [Example 1.10.2, 2-(2-chloro-4-morpholinophenoxy)-1-(5-(2-cyclopropyl-pyrimidin-5-yl)-2-methyl-7,8-dihydro-[1,3,4]thiadiazolo [2′,3′:2,3]imidazo[4,5-c]pyridin-6(5H)-yl)ethanone] yielded an IC50 under setting [1] of 18 nM.

The compound `Cn1nc(OCC(=O)N2CCc3nc4sccn4c3C2c2cccnc2F)c(C(F)(F)F)c1Cl` (stereo not shown) [Example 6.2.6, 2-((5-chloro-1-methyl-4-(trifluoromethyl)-1H-pyrazol-3-yl)oxy)-1-(5-(2-fluoropyridin-3-yl)-7,8-dihydrothiazolo[2′,3′:2,3]imidazo[4,5-c]pyridin-6(5H)-yl)ethanone] gave an IC50 under setting [1] of 419 nM.

In turn, `CNC(=O)c1cc(F)c(C2c3c(nc4sc(C)nn34)CCN2C(=O)COc2ccc(C(N)=O)nc2Cl)s1` (stereo not shown) [Example 1.25.6, 6-chloro-5-(2-(5-(3-fluoro-5-(methylcarbamoyl)thiophen-2-yl)-2-methyl-7,8-dihydro-[1,3,4]thiadiazolo[2′,3′:2,3]imidazo[4,5-c]pyridin-6(5H)-yl)-2-oxoethoxy)picolinamide] showed an IC50 under setting [1] of 8 nM.

For `CCc1cc(Cl)ccc1OCC(=O)N1CCc2nc3sccn3c2C1c1c(C)nn(C)c1C` (stereo not shown) [Example 6.15.4, 2-(4-chloro-2-ethylphenoxy)-1-(5-(1,3,5-trimethyl-1H-pyrazol-4-yl)-7,8-dihydrothiazolo[2′,3′:2,3]imidazo[4,5-c]pyridin-6(5H)-yl)ethanone], 102 nM corresponded to half-maximal inhibition under setting [1] (IC50).

The compound `Cc1nn2c3c(nc2s1)CCN(C(=O)COc1ccc(N2CCOCC2)nc1Cl)C3c1ncc(C(=O)N(C)C)s1` (stereo not shown) [Example 1.37.5, 2-(6-(2-((2-Chloro-6-morpholinopyridin-3-yl)oxy)acetyl)-2-methyl-5,6,7,8-tetrahydro-[1,3,4]thiadiazolo[2′,3′:2,3]imidazo[4,5-c]pyridin-5-yl)-N,N-dimethylthiazole-5-carboxamide] yielded an IC50 (full length human TPH1, 40 μM L-tryptophan, 15° C., 60 minutes, fluorescence at 540 nm, mean if determined several times) of 9 nM.

`CCc1nn2c3c(nc2s1)CCN(C(=O)COc1ccc(N2CCN(C)CC2)nc1Cl)C3c1ccc(Cl)cc1F` (stereo not shown) [Example 3.1.4, 1-(5-(4-chloro-2-fluorophenyl)-2-ethyl-7,8-dihydro-[1,3,4]thiadiazolo[2′,3′:2,3]imidazo[4,5-c]pyridin-6(5H)-yl)-2-((2-chloro-6-(4-methylpiperazin-1-yl)pyridin-3-yl)oxy)ethanone] yielded an IC50 under setting [1] of 10 nM.

On to “5-(2-(5-(4-(aminomethyl)-2-fluorophenyl)-2-methyl-7,8-dihydro-[1,3,4]thiadiazolo[2′,3′:2,3]imidazo[4,5-c]pyridin-6(5H)-yl)-2-oxoethoxy)-6-chloro-N-cyclopropylpicolinamide [Example 1.78.2]”, for which 18 nM corresponded to half-maximal inhibition under setting [1] (IC50).

Under setting [1], `CCc1nc(NS(C)(=O)=O)ccc1OCC(=O)N1CCc2nc3sc(CF)nn3c2C1c1ccc(Cl)cc1F` (stereo not shown) [Example 7.1.2, N-(5-(2-(5-(4-chloro-2-fluorophenyl)-2-(fluoromethyl)-7,8-dihydro-[1,3,4]thiadiazolo[2′,3′:2,3]imidazo[4,5-c]pyridin-6(5H)-yl)-2-oxoethoxy)-6-ethylpyridin-2-yl)methanesulfonamide] yielded an IC50 of 8 nM.

With `O=C(COc1ccc(CN2CCOCC2)nc1Cl)N1CCc2nc3sccn3c2C1c1cccnc1F` (stereo not shown) [Example 6.2.7, ((2-chloro-6-(morpholinomethyl)pyridin-3-yl)oxy)-1-(5-(2-fluoropyridin-3-yl)-7,8-dihydrothiazolo[2′,3′:2,3]-imidazo[4,5-c]pyridin-6(5H)-yl)ethanone], half-maximal inhibition under setting [1] (IC50) was put at 235 nM.

In the case of `Cc1nn2c3c(nc2s1)CCN(C(=O)COc1ccc(C(F)(F)F)nc1)C3c1ccc(C2CC2)cc1F` (stereo not shown) [Example 1.6.4, 1-(5-(4-cyclopropyl-2-fluorophenyl)-2-methyl-7,8-dihydro-[1,3,4]thiadiazolo[2′,3′:2,3]imidazo[4,5-c]pyridin-6(5H)-yl)-2-((6-(trifluoromethyl)pyridin-3-yl)oxy)ethanone], the IC50 under setting [1] was determined as 68 nM.

Under setting [1], `CNC(=O)c1cc(F)c(C2c3c(nc4sc(C)nn34)CCN2C(=O)COc2ccc(N3CCOCC3)nc2Cl)s1` (stereo not shown) [Example 1.25.1, 5-(6-(2-((2-chloro-6-morpholinopyridin-3-yl)oxy)acetyl)-2-methyl-5,6,7,8-tetrahydro-[1,3,4]thiadiazolo[2′,3′:2,3]imidazo[4,5-c]pyridin-5-yl)-4-fluoro-N-methylthiophene-2-carboxamide] returned an IC50 of 5 nM.

As to `CCc1nc(N2CCCS2(=O)=O)ccc1OCC(=O)N1CCc2nc3sc(C(F)(F)F)nn3c2C1c1ncc(C)cc1F` (stereo not shown) [Example 5.2.1, 2-((6-(1,1-dioxidoisothiazolidin-2-yl)-2-ethylpyridin-3-yl)oxy)-1-(5-(3-fluoro-5-methylpyridin-2-yl)-2-(trifluoromethyl)-7,8-dihydro-[1,3,4]thiadiazolo[2′,3′:2,3]imidazo[4,5-c]pyridin-6(5H)-yl)ethanone], half-maximal inhibition under setting [1] (IC50) required 13 nM.
